Measurements from PubChem BioAssay AID1919004 (Molecular Pharmacology Branch, DTP, NCI, 2023).
Values joined by “and” are separate entries in the source; they are usually repeats but may differ in a detail not shown here. Equal values may be shown once. Each block holds one compound with its values, some of them ahead of it.

Test system: 883617-216-R-J1-PDC complex spheroids, growth, % test/control
Test: Anticancer human tumor 883617-216-R-J1-PDC patient-derived bladder carcinoma cell line growth inhibition [AhR]
Conditions: for viability, T/C: stronger effect = lower value
Summary of the method: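 Spheroids combined tumor cells with HUVEC endothelial cells and human MSCs as stroma. AhR antagonists were paired with standard or investigational drugs, each dosed in half-log steps down from near clinical Cmax, or from 10 microM where Cmax was unknown.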

[1] = curve of first compound, second compound 0.1 µM
[2] = curve of first compound, second compound 0.316 µM
[3] = curve of first compound, second compound 1 µM
[4] = curve of first compound, second compound 3.16 µM
[5] = curve of first compound, second compound 10 µM
[6] = second compound 0.1 µM, first compound 0.0316 µM
[7] = second compound 0.1 µM, first compound 0.1 µM
[8] = second compound 0.1 µM, first compound 0.316 µM
[9] = second compound 0.1 µM, first compound 1 µM
[10] = second compound 0.1 µM, first compound 3.16 µM
[11] = second compound 0.1 µM, first compound 10 µM
[12] = second compound 0.316 µM, first compound 0.0316 µM
[13] = second compound 0.316 µM, first compound 0.1 µM
[14] = second compound 0.316 µM, first compound 0.316 µM
[15] = second compound 0.316 µM, first compound 1 µM
[16] = second compound 0.316 µM, first compound 3.16 µM
[17] = second compound 0.316 µM, first compound 10 µM
[18] = second compound 1 µM, first compound 0.0316 µM
[19] = second compound 1 µM, first compound 0.1 µM
[20] = second compound 1 µM, first compound 0.316 µM
[21] = second compound 1 µM, first compound 1 µM
[22] = second compound 1 µM, first compound 3.16 µM
[23] = second compound 1 µM, first compound 10 µM
[24] = second compound 3.16 µM, first compound 0.0316 µM
[25] = second compound 3.16 µM, first compound 0.1 µM
[26] = second compound 3.16 µM, first compound 0.316 µM
[27] = second compound 3.16 µM, first compound 1 µM
[28] = second compound 3.16 µM, first compound 3.16 µM
[29] = second compound 3.16 µM, first compound 10 µM
[30] = second compound 10 µM, first compound 0.0316 µM
[31] = second compound 10 µM, first compound 0.1 µM
[32] = second compound 10 µM, first compound 0.316 µM
[33] = second compound 10 µM, first compound 1 µM
[34] = second compound 10 µM, first compound 3.16 µM
[35] = second compound 10 µM, first compound 10 µM
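Note: exposure lasted 7 days after dosing on day 3 of spheroid growth.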

Structure (SMILES): COc1ccc([C@@H](O)c2cc(-c3ncnc4cc(N5CCOCC5)ccc34)c(F)cc2Cl)nn1 + CC(CO)NC(=O)c1cc(-c2ccc(Cl)cc2)nn(-c2cnn(C)c2)c1=O
IC50 [1]: 9070 nM | IC50 [2]: 8400 nM | IC50 [3]: 10000 nM | IC50 [4]: 10000 nM | IC50 [5]: 3520 nM | viability, T/C [6]: 83% | viability, T/C [7]: 94.7% | viability, T/C [8]: 76.8% | viability, T/C [9]: 75.9% | viability, T/C [10]: 60.1% | viability, T/C [11]: 49.1% | viability, T/C [12]: 69.9% | viability, T/C [13]: 128% | viability, T/C [14]: 83.1% | viability, T/C [15]: 63.9% | viability, T/C [16]: 124% | viability, T/C [17]: 42.2% | viability, T/C [18]: 86.4% | viability, T/C [19]: 99.7% | viability, T/C [20]: 55.9% | viability, T/C [21]: 58.9% | viability, T/C [22]: 61.4% | viability, T/C [23]: 42.1% | viability, T/C [24]: 64.8% | viability, T/C [25]: 135% | viability, T/C [26]: 73.6% | viability, T/C [27]: 61.7% | viability, T/C [28]: 37.1% | viability, T/C [29]: 51.6% | viability, T/C [30]: 119% | viability, T/C [31]: 81.7% | viability, T/C [32]: 88.7% | viability, T/C [33]: 73.4% | viability, T/C [34]: 51.1% | viability, T/C [35]: 32.4%

Structure (SMILES): O=C(C=Cc1cccc(S(=O)(=O)Nc2ccccc2)c1)NO + Cc1cncc(-c2nc(NCCc3c[nH]c4ccccc34)c3ncn(C(C)C)c3n2)c1
IC50 [1]: 1740 nM | IC50 [2]: 1660 nM | IC50 [3]: 1960 nM | IC50 [4]: 1900 nM | IC50 [5]: < 31.6 nM | viability, T/C [6]: 92.5% | viability, T/C [7]: 93.9% | viability, T/C [8]: 83% | viability, T/C [9]: 60.6% | viability, T/C [10]: 37% | viability, T/C [11]: 3.56% | viability, T/C [12]: 88.5% | viability, T/C [13]: 86.4% | viability, T/C [14]: 84.4% | viability, T/C [15]: 60.3% | viability, T/C [16]: 34.5% | viability, T/C [17]: 4.17% | viability, T/C [18]: 97.1% | viability, T/C [19]: 101% | viability, T/C [20]: 96.4% | viability, T/C [21]: 63.5% | viability, T/C [22]: 39.1% | viability, T/C [23]: 2.44% | viability, T/C [24]: 123% | viability, T/C [25]: 114% | viability, T/C [26]: 94.8% | viability, T/C [27]: 69.8% | viability, T/C [28]: 34.6% | viability, T/C [29]: 2.66% | viability, T/C [30]: 52.4% | viability, T/C [31]: 43.2% | viability, T/C [32]: 34.7% | viability, T/C [33]: 42.7% | viability, T/C [34]: 22% | viability, T/C [35]: 1.42%

Structure (SMILES): COc1cc(Nc2ncc3c(n2)-c2ccc(Cl)cc2C(c2c(F)cccc2OC)=NC3)ccc1C(=O)O + Cc1cncc(-c2nc(NCCc3c[nH]c4ccccc34)c3ncn(C(C)C)c3n2)c1
IC50 [1]: > 10000 nM | IC50 [2]: > 10000 nM | IC50 [3]: > 10000 nM | IC50 [4]: > 10000 nM | IC50 [5]: > 10000 nM | viability, T/C [6]: 83.8% | viability, T/C [7]: 86.9% | viability, T/C [8]: 81.7% | viability, T/C [9]: 72.5% | viability, T/C [10]: 73.8% | viability, T/C [11]: 61.5% | viability, T/C [12]: 86.3% | viability, T/C [13]: 83.1% | viability, T/C [14]: 81.7% | viability, T/C [15]: 72.2% | viability, T/C [16]: 73.6% | viability, T/C [17]: 65.5% | viability, T/C [18]: 91.8% | viability, T/C [19]: 88.6% | viability, T/C [20]: 75.3% | viability, T/C [21]: 82.8% | viability, T/C [22]: 80% | viability, T/C [23]: 70.8% | viability, T/C [24]: 92.2% | viability, T/C [25]: 98% | viability, T/C [26]: 102% | viability, T/C [27]: 81.8% | viability, T/C [28]: 81.2% | viability, T/C [29]: 72.7% | viability, T/C [30]: 54.4% | viability, T/C [31]: 55% | viability, T/C [32]: 53.1% | viability, T/C [33]: 51.4% | viability, T/C [34]: 56.4% | viability, T/C [35]: 71.2%

Structure (SMILES): CC1COCCN1c1cc(C2(S(C)(=N)=O)CC2)nc(-c2ccnc3[nH]ccc23)n1 (centres undefined)
viability, T/C (compound 0.0316 µM): 99.7% and 109% and 114% | viability, T/C (compound 0.1 µM): 97.4% and 97.5% and 101% | viability, T/C (compound 0.316 µM): 106% and 101% and 71.2% | viability, T/C (compound 1 µM): 88.5% and 99.6% and 63.6% | viability, T/C (compound 3.16 µM): 76% and 80.4% and 89.1% | viability, T/C (compound 10 µM): 48.9% and 56.1% and 102% | IC50 (curve of compound): 9600 nM and > 10000 nM

Structure (SMILES): Nc1ccccc1NC(=O)c1ccc(CNC(=O)OCc2cccnc2)cc1
viability, T/C (compound 0.0316 µM): 96.9% and 100% and 89.9% | viability, T/C (compound 0.1 µM): 102% and 111% and 88.5% | viability, T/C (compound 0.316 µM): 86.1% and 82.7% and 81.7% | viability, T/C (compound 1 µM): 52.8% and 62.3% and 78.8% | viability, T/C (compound 3.16 µM): 20% and 24.2% and 63.7% | viability, T/C (compound 10 µM): 0.83% and 1.59% and 18.8% | IC50 (curve of compound): 1150 nM and 1390 nM and 4400 nM

More lines, main results first:

IC50 [1]: < 31.6 nM | IC50 [2]: < 31.6 nM | IC50 [3]: < 31.6 nM | IC50 [4]: < 31.6 nM | IC50 [5]: < 31.6 nM
Structure (SMILES): Nc1ccn(C2OC(CO)C(O)C2(F)F)c(=O)n1 (centres undefined) + Cc1ccccc1N=Nc1ccc(NC(=O)c2ccnn2C)c(C)c1
viability, T/C [6]: 27.8% | viability, T/C [7]: 26.8% | viability, T/C [8]: 35.4% | viability, T/C [9]: 32.4% | viability, T/C [10]: 30.2% | viability, T/C [11]: 32.2% | viability, T/C [12]: 25.1% | viability, T/C [13]: 26.1% | viability, T/C [14]: 32.5% | viability, T/C [15]: 33.5% | viability, T/C [16]: 35.2% | viability, T/C [17]: 37.5% | viability, T/C [18]: 28.6% | viability, T/C [19]: 22.8% | viability, T/C [20]: 31.5% | viability, T/C [21]: 36% | viability, T/C [22]: 34.2% | viability, T/C [23]: 31.7% | viability, T/C [24]: 26.1% | viability, T/C [25]: 22.3% | viability, T/C [26]: 31% | viability, T/C [27]: 31.3% | viability, T/C [28]: 37.3% | viability, T/C [29]: 32.4% | viability, T/C [30]: 36.3% | viability, T/C [31]: 27.8% | viability, T/C [32]: 29.4% | viability, T/C [33]: 34.5% | viability, T/C [34]: 31.1% | viability, T/C [35]: 32.4%

IC50 [1]: 9.01 nM | IC50 [2]: 8.45 nM | IC50 [3]: 7.37 nM | IC50 [4]: 6.62 nM | IC50 [5]: 3.48 nM
Structure (SMILES): CC(C)CC(NC(=O)C(Cc1ccccc1)NC(=O)c1cnccn1)B(O)O (centres undefined) + Cc1cncc(-c2nc(NCCc3c[nH]c4ccccc34)c3ncn(C(C)C)c3n2)c1
viability, T/C (second compound 0.1 µM, first compound 0.000949 µM): 90.2% | viability, T/C (second compound 0.1 µM, first compound 0.003 µM): 93.5% | viability, T/C (second compound 0.1 µM, first compound 0.00949 µM): 48.1% | viability, T/C (second compound 0.1 µM, first compound 0.03 µM): 0.14% | viability, T/C (second compound 0.1 µM, first compound 0.0949 µM): 0.1% | viability, T/C (second compound 0.1 µM, first compound 0.3 µM): 0.23% | viability, T/C (second compound 0.316 µM, first compound 0.000949 µM): 97.4% | viability, T/C (second compound 0.316 µM, first compound 0.003 µM): 96.1% | viability, T/C (second compound 0.316 µM, first compound 0.00949 µM): 44.8% | viability, T/C (second compound 0.316 µM, first compound 0.03 µM): 0.11% | viability, T/C (second compound 0.316 µM, first compound 0.0949 µM): 0.06% | viability, T/C (second compound 0.316 µM, first compound 0.3 µM): 0.21% | viability, T/C (second compound 1 µM, first compound 0.000949 µM): 111% | viability, T/C (second compound 1 µM, first compound 0.003 µM): 93.9% | viability, T/C (second compound 1 µM, first compound 0.00949 µM): 38.7% | viability, T/C (second compound 1 µM, first compound 0.03 µM): 0.1% | viability, T/C (second compound 1 µM, first compound 0.0949 µM): 0.05% | viability, T/C (second compound 1 µM, first compound 0.3 µM): 0.21% | viability, T/C (second compound 3.16 µM, first compound 0.000949 µM): 105% | viability, T/C (second compound 3.16 µM, first compound 0.003 µM): 111% | viability, T/C (second compound 3.16 µM, first compound 0.00949 µM): 23.6% | viability, T/C (second compound 3.16 µM, first compound 0.03 µM): 0.14% | viability, T/C (second compound 3.16 µM, first compound 0.0949 µM): 0.84% | viability, T/C (second compound 3.16 µM, first compound 0.3 µM): 0.2% | viability, T/C (second compound 10 µM, first compound 0.000949 µM): 61.7% | viability, T/C (second compound 10 µM, first compound 0.003 µM): 57.3% | viability, T/C (second compound 10 µM, first compound 0.00949 µM): 0.3% | viability, T/C (second compound 10 µM, first compound 0.03 µM): 0.24% | viability, T/C (second compound 10 µM, first compound 0.0949 µM): 0.23% | viability, T/C (second compound 10 µM, first compound 0.3 µM): 0.62%
